The source of these data is patent US12331040B2 (Karyopharm Therapeutics Inc., priority 2013, dated 2025).

pIC50: −log10 of the molar value. Read-outs that look alike come from different tables or passages of the source. A value given as a limit tells only on which side of the number the result lay.

Experiment in all cases: MTT cell proliferation assay
Common to all, as to assay type: cell-based
Background: Formazan colour is commonly taken as a measure of viable cells.

One assay concerns MS751 cells. The settings on record: Homo sapiens, MS751, MS751 cells, approximately 64-72 hours incubation. Put shortly: (§1)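 5,000-10,000 cells/well, overnight attach; 8 conc., 1 nM–30 μM; MTT ~4 h; formazan solubilized, OD 490 nm; % inhibition = (1−(ODo/OD))×100 vs neg. control; mostly duplicate, mean±SE.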
The test system of another assay is Z138 cells. The settings on record: Homo sapiens, Z-138, Z138 cells, approximately 64-72 hours incubation. The essentials: as §1
Another assay deals with 3T3 cells. Particulars: Mus musculus, NIH3T3, approximately 64-72 hours incubation. The essentials:
as §1

Where [1] appears, read: read-out: MTT Assay IC50 MS-751.
[2] abbreviates: read-out: MTT Assay IC50, MS-751.
Setting [3] is: read-out: MTT Assay IC50, Z-138.

With `Nc1ccc(/C=C/C(=O)NCc2cc3cc(-c4ccc(C(=O)N5CCC(F)CC5)cc4)cc(C(F)(F)F)c3o2)cn1` [Compound 567, (E)-3-(6-aminopyridin-3-yl)-N-((5-(4-(4-fluoropiperidine-1-carbonyl)phenyl)-7-(trifluoromethyl)benzofuran-2-yl)methyl)acrylamide], the pIC50 in the assay with MS751 cells (setting [1]) is 5.30 to 7.00; with Z138 cells (read-out: MTT Assay IC50 Z-138) it was 5.30 to 7.00; in the assay on 3T3 cells (read-out: MTT Assay IC50 3T3), below 5.00.

On to `Nc1ccc(/C=C/C(=O)NCc2cc3cc(-c4ccc(C(=O)N5CCC(F)(F)C5)cn4)cc(C(F)(F)F)c3o2)cn1` [Compound 612, (E)-3-(6-aminopyridin-3-yl)-N-((5-(5-(3,3-difluoropyrrolidine-1-carbonyl)pyridin-2-yl)-7-(trifluoromethyl)benzofuran-2-yl)methyl)acrylamide], for which the pIC50 is 5.30 to 7.00 with MS751 cells (setting [1]), above 7.00 in the assay on Z138 cells (read-out: MTT Assay IC50 Z-138) and below 5.00 in the assay with 3T3 cells (read-out: MTT Assay IC50 3T3).

On to `Nc1ccc(/C=C/C(=O)NCc2cc3cc(-c4ccc(C(=O)N5CCOCC5)cn4)cc(Cl)c3o2)cn1` [Compound 560, (E)-3-(6-aminopyridin-3-yl)-N-((7-chloro-5-(5-(morpholine-4-carbonyl)pyridin-2-yl)benzofuran-2-yl)methyl)acrylamide], for which the pIC50 was 5.30 to 7.00 in the assay with MS751 cells (setting [1]), 5.30 to 7.00 in the assay with Z138 cells (read-out: MTT Assay IC50 Z-138) and below 5.00 in the assay with 3T3 cells (read-out: MTT Assay IC50 3T3).

In the case of `Nc1ccc(/C=C/C(=O)NCc2cc3cc(-c4ccc(C(=O)N5CC[C@H](Cl)C5)cn4)cc(C(F)(F)F)c3o2)cn1` [Compound 618, (S,E)-3-(6-aminopyridin-3-yl)-N-((5-(5-(3-chloropyrrolidine-1-carbonyl)pyridin-2-yl)-7-(trifluoromethyl)benzofuran-2-yl)methyl)acrylamide], the results for the pIC50 with MS751 cells (setting [1]), with Z138 cells (read-out: MTT Assay IC50 Z-138) and with 3T3 cells (read-out: MTT Assay IC50 3T3) were 5.30 to 7.00, 5.30 to 7.00 and below 5.00, respectively.

As for `Nc1ccc(/C=C/C(=O)NCc2cc3cc(-c4ccc(C(=S)N5CCC(F)(F)CC5)cc4)cc(-c4ccncc4)c3o2)cn1` [Compound 705, (E)-3-(6-aminopyridin-3-yl)-N-((5-(4-(4,4-difluoropiperidine-1-carbonothioyl)phenyl)-7-(pyridin-4-yl)benzofuran-2-yl)methyl)acrylamide], the pIC50 in the assay on MS751 cells (setting [2]) was above 7.00; with Z138 cells (setting [3]), above 7.00; in the assay on 3T3 cells (read-out: MTT Assay IC50, 3T3) it was 5.30 to 7.00.

In the case of `Nc1ccc(/C=C/C(=O)NCc2cc3cc(-c4ccc(C(=O)N5CCC(F)(F)CC5)cn4)c(F)c(F)c3o2)cn1` [Compound 681, (E)-3-(6-aminopyridin-3-yl)-N-((5-(5-(4,4-difluoropiperidine-1-carbonyl)pyridin-2-yl)-6,7-difluorobenzofuran-2-yl)methyl)acrylamide], the pIC50 with MS751 cells (setting [2]) was below 5.00; in the assay with Z138 cells (setting [3]) it was 5.00 to 5.30; in the assay with 3T3 cells (read-out: MTT Assay IC50, 3T3), below 5.00.

`Nc1ccc(/C=C/C(=O)NCc2nc3cc(-c4ccc(C(=O)N5CC(F)(F)C5)cc4)cc(Cl)c3o2)cn1` [Compound 509, (E)-3-(6-aminopyridin-3-yl)-N-((7-chloro-5-(4-(3,3-difluoroazetidine-1-carbonyl)phenyl)benzo[d]oxazol-2-yl)methyl)acrylamide]: the pIC50 with MS751 cells (setting [1]) was 5.30 to 7.00; in the assay on Z138 cells (read-out: MTT Assay IC50 Z-138), 5.30 to 7.00; with 3T3 cells (read-out: MTT Assay IC50 3T3) it was below 5.00.

In the case of `CC1(C)CN(C(=O)c2ccc(-c3cc(C(F)(F)F)c4oc(CNC(=O)/C=C/c5ccc(N)nc5)cc4c3)cc2)CCN1` [Compound 572, (E)-3-(6-aminopyridin-3-yl)-N-((5-(4-(3,3-dimethylpiperazine-1-carbonyl)phenyl)-7-(trifluoromethyl)benzofuran-2-yl)methyl)acrylamide], the pIC50 is above 7.00 with MS751 cells (setting [1]), above 7.00 with Z138 cells (read-out: MTT Assay IC50 Z-138) and 5.30 to 7.00 with 3T3 cells (read-out: MTT Assay IC50 3T3).

`CC1(F)CCN(C(=O)c2ccc(-c3cc(C(F)(F)F)c4oc(CNC(=O)/C=C/c5ccc(N)nc5)cc4c3)cc2)C1` (single isomer, unassigned) [Compound 715, (E)-3-(6-aminopyridin-3-yl)-N-((5-(4-(3-fluoro-3-methylpyrrolidine-1-carbonyl)phenyl)-7-(trifluoromethyl)benzofuran-2-yl)methyl)acrylamide]: the pIC50 with MS751 cells (setting [2]) was 5.30 to 7.00; in the assay on Z138 cells (setting [3]), 5.30 to 7.00; in the assay on 3T3 cells (read-out: MTT Assay IC50, 3T3), below 5.00.

As for `Nc1ccc(/C=C/C(=O)NCc2cc3cc(-c4ccc(C(=O)N5CCOCC5)cc4)cc(Cl)c3o2)cc1` [Compound 550, (E)-3-(4-Aminophenyl)-N-((7-chloro-5-(4-(morpholine-4-carbonyl)phenyl)benzofuran-2-yl)methyl)acrylamide], the pIC50 in the assay with MS751 cells (setting [1]), with Z138 cells (read-out: MTT Assay IC50 Z-138) and with 3T3 cells (read-out: MTT Assay IC50 3T3) was below 5.00 throughout.

For the molecule `CC1(F)CCN(C(=O)c2ccc(-c3cc(C(F)(F)F)c4oc(CNC(=O)/C=C\c5ccc(N)nc5)cc4c3)nc2)C1` (single isomer, unassigned) [Compound 656, (Z)-3-(6-aminopyridin-3-yl)-N-((5-(5-(3-fluoro-3-methylpyrrolidine-1-carbonyl)pyridin-2-yl)-7-(trifluoromethyl)benzofuran-2-yl)methyl)acrylamide], the values for the pIC50 in the assay with MS751 cells (setting [1]), in the assay on Z138 cells (read-out: MTT Assay IC50 Z-138) and with 3T3 cells (read-out: MTT Assay IC50 3T3) were 5.00 to 5.30, 5.30 to 7.00 and below 5.00, respectively.

As to `Nc1ccc(/C=C/C(=O)NCc2cc3cc(-c4ccc(C(=O)N5CC(F)C5)cc4)cc(C(F)(F)F)c3o2)cn1` [Compound 524, (E)-3-(6-aminopyridin-3-yl)-N-((5-(4-(3-fluoroazetidine-1-carbonyl)phenyl)-7-(trifluoromethyl)benzofuran-2-yl)methyl)acrylamide], the pIC50 in the assay on MS751 cells (setting [1]) is 5.30 to 7.00; with Z138 cells (read-out: MTT Assay IC50 Z-138), 5.30 to 7.00; in the assay with 3T3 cells (read-out: MTT Assay IC50 3T3) it was below 5.00.

Take `Nc1cc2ccc(/C=C/C(=O)NCc3cc4cc(-c5ccc(C(=O)N6CCC(F)(F)CC6)cn5)cc(C(F)(F)F)c4o3)cc2cn1` [Compound 670, (E)-3-(3-aminoisoquinolin-7-yl)-N-((5-(5-(4,4-difluoropiperidine-1-carbonyl)pyridin-2-yl)-7-(trifluoromethyl)benzofuran-2-yl)methyl)acrylamide]: the pIC50 is below 5.00 with MS751 cells (setting [2]); below 5.00 in the assay with Z138 cells (setting [3]); below 5.00 in the assay with 3T3 cells (read-out: MTT Assay IC50, 3T3).

Consider `Nc1ccc(/C=C/C(=O)NCc2cc3cc(-c4ccc(C(=O)N5CCC(F)(F)CC5)cc4)cc(-c4cc5ccccc5o4)c3o2)cn1` [Compound 699], for which the pIC50 in the assay on MS751 cells (setting [2]) was above 7.00; in the assay with Z138 cells (setting [3]), above 7.00; with 3T3 cells (read-out: MTT Assay IC50, 3T3) it was 5.00 to 5.30.

As to `Nc1ccc(/C=C/C(=O)NCc2cc3cc(-c4ccc(S(=O)(=O)N5CCC(F)(F)CC5)cc4)cc(C(F)(F)F)c3o2)cn1` [Compound 679, (E)-3-(6-aminopyridin-3-yl)-N-((5-(4-((4,4-difluoropiperidin-1-yl)sulfonyl)phenyl)-7-(trifluoromethyl)benzofuran-2-yl)methyl)acrylamide], the pIC50 with MS751 cells (setting [2]) is 5.30 to 7.00; in the assay on Z138 cells (setting [3]), 5.30 to 7.00; with 3T3 cells (read-out: MTT Assay IC50, 3T3), 5.30 to 7.00.

Turning to `CC1(F)CCN(C(=O)c2ccc(-c3cc(C(F)(F)F)c4oc(CNC(=O)/C=C/c5ccc(N)nc5)cc4c3)cc2)C1` (stereo not drawn) [Compound 608, (E)-3-(6-aminopyridin-3-yl)-N-((5-(4-(3-fluoro-3-methylpyrrolidine-1-carbonyl)phenyl)-7-(trifluoromethyl)benzofuran-2-yl)methyl)acrylamide], the pIC50 in the assay with MS751 cells (setting [1]) was 5.30 to 7.00; in the assay with Z138 cells (read-out: MTT Assay IC50 Z-138), 5.30 to 7.00; with 3T3 cells (read-out: MTT Assay IC50 3T3) it was below 5.00.

Broadly, the pIC50 is the IC50 on a negative log10 scale, so that one unit is a factor of ten.
